{"source": "PubChem BioAssay AID2060619", "about": "(Molecular Pharmacology Branch, DTP, NCI, 2025);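 further: spheroids exposed to agents for seven days before readout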;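 on viability, T/C: percent of DMSO vehicle control wells so 100% = untreated growth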", "test_system": "323965-272-R-J2-PDC complex spheroid viability", "experiment": "Anticancer human tumor 323965-272-R-J2-PDC patient-derived pancreatic carcinoma cell line growth inhibition [CLK]", "conditions": "for IC50: curve of first compound; for viability, T/C: stronger effect = lower value", "text": "A high-throughput screen of multi-cell type tumor spheroids was designed to identify active combinations of […] and targeted small molecules. Complex spheroids include a stromal component modeled by human endothelial cells (HUVEC) and fibroblasts modeled by human mesenchymal stem cells (MSCs). The concentration ranges selected for each drug and investigational agent were based upon clinically achievable concentrations if the clinical Cmax of the agent was known.\nCompounds. The drugs and investigational agents: cirtuvivint (SM08502; NSC835563), CC-671 (NSC850746), vemurafenib (NSC761431), tapotoclax (NSC804041), sotorasib (NSC818433), adagrasib (NSC831453), MRTX-1133 (NSC836407), BAY2416964 (NSC825713), copanlisib (NSC816437), inavolisib (NSC800729), abemaciclib (NSC768073), osimertinib (NSC779217), entinostat (NSC756642), eltanexor (KPT-8602, NSC794443), venetoclax (NSC766270), ceralasertib (NSC777638), bortezomib (NSC756655), olaparib (NSC753686), talazoparib (NSC767125), alisertib (NSC759677), peposertib (NSC802822), gemcitabine (NSC613327), 5-fluorouracil (NSC19893), SN-38 (NSC673596), oxaliplatin (NSC266046), paclitaxel (NSC125973), and doxorubicin (NSC123127), were obtained from the National Cancer Institute (NCI) Developmental Therapeutics Program Chemical Repository. The FDA-approved anticancer drug set is available from the Developmental Therapeutics Program at https://dtp.cancer.gov/organization/dscb/obtaining/available plates.htm. […] The stock solutions were prepared in dimethyl sulfoxide (DMSO, Sigma-Aldrich, St. Louis, MO, cat. D2650), except for the platinum complexes which were prepared in saline (Quality Biological, Gaithersburg, MD, cat. 114-055-101), at 800-fold the tested concentration and stored at -70 degrees C prior to their use. All drugs and investigational agents were tested over a range starting from a high concentration at or near the clinical Cmax and decreasing in half-log increments. If the clinical Cmax for an agent had not been determined, the highest concentration tested was 10 microM.\nCell Culture. All cells were maintained in an incubator at 37 degrees C and 5% CO2 with 95% humidity. The PDC lines were cultured according to standard operating procedures established by the NCI PDMR. Briefly, all PDCs were thawed and cultured in Matrigel-coated flasks prepared with a working solution of 1X Ham's F-12 nutrient mix, without supplementation (Invitrogen, Waltham, MA, cat. 11765054), 100 U/mL penicillin-streptomycin (Invitrogen, cat. 15140122), and 2.5% Matrigel (Corning Inc., Corning, NY, cat. 354248) for the first three passages. The 947758-054-R-J2-PDC line was cultured in 6B/Colon 1A media, which includes advanced DMEM/F-12 (Thermo Fisher Scientific, cat. 12634028), 10 mM HEPES (Thermo Fisher Scientific, cat. 15630080), 1X GlutaMAX supplement (Thermo Fisher Scientific, cat. 35050061), 0.1 mg/mL primocin (InvivoGen, cat. ant-pm-2), 10% defined fetal bovine serum, heat inactivated (HyClone Laboratories Inc., cat. SH30070.03HI), 1.25 mM N-Acetyl-L-cysteine (Sigma-Aldrich, cat. A9165), 10 mM nicotinamide (Sigma-Aldrich, cat. N0636), 1X B-27 supplement (Thermo Fisher Scientific, cat. 17504044), 1X N-2 supplement (Thermo Fisher Scientific, cat. 17502048), and 10 microM Y-27632 dihydrochloride (Tocris Bioscience, cat. 1254). The 876862-298-R-J1-PDC was cultured in 6E media, which includes all 6B/Colon 1A media components plus 50% L-WRN conditioned media (ATCC, cat. CRL-3276), 50 ng/mL recombinant human EGF recombinant protein (hEGF; Thermo Fisher Scientific, cat. PHG0311), 10 ng/mL recombinant human fibroblast growth factor 10 (hGFG-10; PeproTech, cat. 100-26), 1 ng/mL recombinant human fibroblast growth factor 2 (hFGF-2; PeproTech, cat. 100-18B), and 1 µM prostaglandin E2 (PGE2; Tocris, cat. 2296). The 227483-062-R1-J1-PDC line was cultured in Panc media, containing all 6E components except hFGF-2, with the addition of 500 nM SB-431542 (Selleckchem, cat. S1067) and 10 nM gastrin (Tocris, cat. 3006). […]", "data": [{"smiles": "COc1c(OCCCN2CCOCC2)ccc2c3n(c(=NC(=O)c4cnc(N)nc4)nc12)CCN3", "note": "+ CN1CCN(c2cc(C(=O)Nc3cc4cc(-c5cnn(C)c5)ccc4cn3)ccn2)CC1", "values": [{"measurement": "IC50", "setting": "second compound 0.0316 µM", "value": 40.1, "unit": "nM"}, {"measurement": "IC50", "setting": "second compound 0.1 µM", "value": 18.7, "unit": "nM"}, {"measurement": "IC50", "setting": "second compound 0.316 µM", "value": "< 3.16", "unit": "nM"}, {"measurement": "IC50", "setting": "second compound 1 µM", "value": "< 3.16", "unit": "nM"}, {"measurement": "IC50", "setting": "second compound 3.16 µM", "value": "< 3.16", "unit": "nM"}, {"measurement": "IC50", "setting": "second compound 10 µM", "value": "< 3.16", "unit": "nM"}, {"measurement": "viability, T/C", "setting": "second compound 0.0316 µM, first compound 0.00316 µM", "value": 85.5, "unit": "%"}, {"measurement": "viability, T/C", "setting": "second compound 0.0316 µM, first compound 0.01 µM", "value": 77.1, "unit": "%"}, {"measurement": "viability, T/C", "setting": "second compound 0.0316 µM, first compound 0.0316 µM", "value": 50, "unit": "%"}, {"measurement": "viability, T/C", "setting": "second compound 0.0316 µM, first compound 0.1 µM", "value": 39.6, "unit": "%"}, {"measurement": "viability, T/C", "setting": "second compound 0.0316 µM, first compound 0.316 µM", "value": 28.8, "unit": "%"}, {"measurement": "viability, T/C", "setting": "second compound 0.0316 µM, first compound 1 µM", "value": 25.9, "unit": "%"}, {"measurement": "viability, T/C", "setting": "second compound 0.1 µM, first compound 0.00316 µM", "value": 64.5, "unit": "%"}, {"measurement": "viability, T/C", "setting": "second compound 0.1 µM, first compound 0.01 µM", "value": 63, "unit": "%"}, {"measurement": "viability, T/C", "setting": "second compound 0.1 µM, first compound 0.0316 µM", "value": 39.3, "unit": "%"}, {"measurement": "viability, T/C", "setting": "second compound 0.1 µM, first compound 0.1 µM", "value": 26, "unit": "%"}, {"measurement": "viability, T/C", "setting": "second compound 0.1 µM, first compound 0.316 µM", "value": 21.4, "unit": "%"}, {"measurement": "viability, T/C", "setting": "second compound 0.1 µM, first compound 1 µM", "value": 19.3, "unit": "%"}, {"measurement": "viability, T/C", "setting": "second compound 0.316 µM, first compound 0.00316 µM", "value": 23.6, "unit": "%"}, {"measurement": "viability, T/C", "setting": "second compound 0.316 µM, first compound 0.01 µM", "value": 21.5, "unit": "%"}, {"measurement": "viability, T/C", "setting": "second compound 0.316 µM, first compound 0.0316 µM", "value": 15.9, "unit": "%"}, {"measurement": "viability, T/C", "setting": "second compound 0.316 µM, first compound 0.1 µM", "value": 15.7, "unit": "%"}, {"measurement": "viability, T/C", "setting": "second compound 0.316 µM, first compound 0.316 µM", "value": 12.2, "unit": "%"}, {"measurement": "viability, T/C", "setting": "second compound 0.316 µM, first compound 1 µM", "value": 11.9, "unit": "%"}, {"measurement": "viability, T/C", "setting": "second compound 1 µM, first compound 0.00316 µM", "value": 3.49, "unit": "%"}, {"measurement": "viability, T/C", "setting": "second compound 1 µM, first compound 0.01 µM", "value": 2.87, "unit": "%"}, {"measurement": "viability, T/C", "setting": "second compound 1 µM, first compound 0.0316 µM", "value": 2.38, "unit": "%"}, {"measurement": "viability, T/C", "setting": "second compound 1 µM, first compound 0.1 µM", "value": 2.22, "unit": "%"}, {"measurement": "viability, T/C", "setting": "second compound 1 µM, first compound 0.316 µM", "value": 1.51, "unit": "%"}, {"measurement": "viability, T/C", "setting": "second compound 1 µM, first compound 1 µM", "value": 0.92, "unit": "%"}, {"measurement": "viability, T/C", "setting": "second compound 3.16 µM, first compound 0.00316 µM", "value": 3.25, "unit": "%"}, {"measurement": "viability, T/C", "setting": "second compound 3.16 µM, first compound 0.01 µM", "value": 4.48, "unit": "%"}, {"measurement": "viability, T/C", "setting": "second compound 3.16 µM, first compound 0.0316 µM", "value": 3.03, "unit": "%"}, {"measurement": "viability, T/C", "setting": "second compound 3.16 µM, first compound 0.1 µM", "value": 1.39, "unit": "%"}, {"measurement": "viability, T/C", "setting": "second compound 3.16 µM, first compound 0.316 µM", "value": 1.26, "unit": "%"}, {"measurement": "viability, T/C", "setting": "second compound 3.16 µM, first compound 1 µM", "value": 0.84, "unit": "%"}, {"measurement": "viability, T/C", "setting": "second compound 10 µM, first compound 0.00316 µM", "value": 4.13, "unit": "%"}, {"measurement": "viability, T/C", "setting": "second compound 10 µM, first compound 0.01 µM", "value": 3.87, "unit": "%"}, {"measurement": "viability, T/C", "setting": "second compound 10 µM, first compound 0.0316 µM", "value": 3.7, "unit": "%"}, {"measurement": "viability, T/C", "setting": "second compound 10 µM, first compound 0.1 µM", "value": 2.13, "unit": "%"}, {"measurement": "viability, T/C", "setting": "second compound 10 µM, first compound 0.316 µM", "value": 1.69, "unit": "%"}, {"measurement": "viability, T/C", "setting": "second compound 10 µM, first compound 1 µM", "value": 2.03, "unit": "%"}]}]}
